Molecules are shown by their SMILES.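 1) Cells in 96-well plates. 2) Compound, 48 h, 5 concentrations. 3) Linear interpolation between surrounding doses. 4) Unreached endpoint = highest concentration. The concentration for 50% growth inhibition is given as GI50. TGI marks complete inhibition of growth.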

From PubChem BioAssay (NCI) come the findings set out here.

Test systems include A498 renal; SW-620 colon; HCC-2998 colon; A549 NSCLC; PC-3 prostate; RPMI-8226 leukemia; ACHN renal; MALME-3M melanoma; UO-31 renal; SR leukemia.
Common to all, as to test: DTP human tumour cell line panel, 48 h

For `CCCC(=O)O`, the TGI was 10400 µM in the assay on A498 renal; more than 18700 µM in the assay with SW-620 colon; more than 18700 µM with HCC-2998 colon; more than 18700 µM in the assay with A549 NSCLC; more than 18700 µM in the assay on PC-3 prostate; 14500 µM with ACHN renal. Further, the TGI in the assay on MALME-3M melanoma is more than 18700 µM; in the assay on UO-31 renal, 10200 µM; in the assay with SR leukemia, 5340 µM. Besides, the figures for the GI50 with HCC-2998 colon, with RPMI-8226 leukemia and in the assay with MALME-3M melanoma were 10800 µM, 473 µM and 3490 µM, respectively.
In the case of `COc1ccc2oc(=N)c(C(=O)Nc3cccc4ccccc34)cc2c1`, the TGI is 39.2 µM in the assay on A498 renal; more than 100 µM with SW-620 colon; more than 100 µM in the assay with HCC-2998 colon; more than 100 µM in the assay with A549 NSCLC; 31.1 µM with PC-3 prostate; 57.9 µM with RPMI-8226 leukemia. Further, the TGI in the assay on ACHN renal was more than 100 µM; with MALME-3M melanoma, 49.8 µM; in the assay on UO-31 renal, 30.5 µM; with SR leukemia it was 28.5 µM.
For the compound `O=c1cnn(C/C=C\CO)c(=O)[nH]1`, the TGI with A498 renal, with SW-620 colon, in the assay on HCC-2998 colon, in the assay on A549 NSCLC, in the assay on PC-3 prostate and in the assay on RPMI-8226 leukemia was more than 100 µM each time. In addition, the TGI in the assay on ACHN renal, with MALME-3M melanoma, in the assay on UO-31 renal and in the assay on SR leukemia was more than 100 µM each time.
In the case of `CCOC(=O)c1cccc(NC(=O)CCl)c1`, the TGI with A498 renal stood at 29.2 µM; with SW-620 colon, 16.5 µM; with HCC-2998 colon, 7.93 µM; with A549 NSCLC it was 29.8 µM; in the assay on PC-3 prostate, 18.1 µM; with RPMI-8226 leukemia it was 15.9 µM. Further, the TGI with ACHN renal was determined as 9.19 µM; with MALME-3M melanoma, 18.5 µM; with UO-31 renal, 13.7 µM; in the assay on SR leukemia it was 7.46 µM.
With `O=c1c2ccccc2oc2nc3n(c(=O)c12)CCCS3`, the TGI in the assay on A498 renal, in the assay with SW-620 colon, with HCC-2998 colon, in the assay on A549 NSCLC, in the assay with PC-3 prostate and in the assay on RPMI-8226 leukemia was more than 100 µM in each case. In addition, the TGI in the assay with ACHN renal was more than 100 µM; in the assay with MALME-3M melanoma, more than 100 µM; with UO-31 renal it was 29.2 µM; with SR leukemia, more than 100 µM.
On to `O=C(CSCC(=O)N/N=C/c1cc(I)cc(I)c1O)N/N=C/c1cc(I)cc(I)c1O`, for which the TGI with A498 renal was 27.9 µM; in the assay on SW-620 colon, more than 100 µM; in the assay on HCC-2998 colon it was 38.1 µM; in the assay with A549 NSCLC, more than 100 µM; with PC-3 prostate, more than 100 µM; in the assay on RPMI-8226 leukemia it was 61.5 µM. For the same compound, the TGI in the assay with ACHN renal is 32.2 µM; in the assay with MALME-3M melanoma, 44.3 µM; in the assay with UO-31 renal it was 44.5 µM; in the assay with SR leukemia, 14 µM.
Turning to `C=C(C)C(=O)CC[C@@H](C)[C@H]1[C@@H](OC2OC(CO)C(O)C(O)C2O)C[C@@]2(C)[C@@H]3C[C@H](O)C4C(C)(C)[C@@H](OC5OC(CO)C(O)C(O)C5O)CC[C@@]45C[C@@]35CC[C@]12C` (some centres not stated), the TGI in the assay on A498 renal, in the assay on SW-620 colon, with HCC-2998 colon, in the assay with A549 NSCLC, in the assay with PC-3 prostate and in the assay with RPMI-8226 leukemia was more than 100 µM in each case. The TGI with ACHN renal, with MALME-3M melanoma, in the assay with UO-31 renal and with SR leukemia was more than 100 µM throughout.
With `CCCCNC1CCC2(SCCS2)c2[nH]c3ccccc3c21` (configuration not stated), the TGI in the assay on A498 renal was 76.7 µM; in the assay with SW-620 colon it was more than 82.6 µM; with HCC-2998 colon, 38.8 µM; in the assay on A549 NSCLC, more than 100 µM; with PC-3 prostate it was more than 67.3 µM; with RPMI-8226 leukemia, more than 43.1 µM. The TGI with ACHN renal was more than 100 µM; with MALME-3M melanoma it was 33.8 µM; in the assay on UO-31 renal, more than 89.4 µM; in the assay with SR leukemia, 39.6 µM.
Turning to `C1=C\SS/C=C\SS/C=C\SS/C=C\SS/1`, the TGI in the assay on A498 renal, in the assay with SW-620 colon, in the assay with HCC-2998 colon, in the assay on A549 NSCLC, in the assay with PC-3 prostate and in the assay with RPMI-8226 leukemia was more than 100 µM in each case. Further, the TGI with ACHN renal, with MALME-3M melanoma, with UO-31 renal and with SR leukemia was more than 100 µM throughout.
On to `CN(C)c1nc2sc3c(c2c(=O)o1)CCCC3`, for which the TGI is 66.8 µM in the assay with A498 renal; more than 100 µM in the assay on SW-620 colon; more than 100 µM with HCC-2998 colon; more than 100 µM with A549 NSCLC; more than 100 µM in the assay on PC-3 prostate; more than 100 µM in the assay on RPMI-8226 leukemia. The TGI in the assay with ACHN renal, in the assay on MALME-3M melanoma, in the assay on UO-31 renal and with SR leukemia was more than 100 µM throughout.
Turning to `Clc1ccc2c(SCC3CO3)c3ccccc3nc2c1` (configuration not stated), the TGI with A498 renal was 33.9 µM; with SW-620 colon it was 5.24 µM; with HCC-2998 colon, 9.55 µM; in the assay on A549 NSCLC it was 20.3 µM; in the assay with PC-3 prostate, 6.86 µM; with RPMI-8226 leukemia, 7.19 µM. For the same compound, the TGI in the assay on ACHN renal worked out at 4.55 µM; with MALME-3M melanoma, 6.39 µM; in the assay on UO-31 renal, 3.34 µM; in the assay on SR leukemia it was 4.56 µM.
In the case of `CCOc1cc2c(cc1O)/C(=N\N)C[C@@H]1[C@@H]2CC[C@]2(C)[C@@H](O)CC[C@@H]12`, the TGI in the assay on A498 renal was more than 100 µM; in the assay on SW-620 colon it was 17.8 µM; in the assay on HCC-2998 colon it was 12.8 µM; in the assay with A549 NSCLC, more than 100 µM; with PC-3 prostate, more than 80.1 µM; in the assay on RPMI-8226 leukemia, more than 100 µM. The TGI is more than 100 µM with ACHN renal, 20.8 µM with MALME-3M melanoma, more than 100 µM with UO-31 renal and more than 100 µM with SR leukemia.
Take `CN1C/C(=C\c2cccs2)C2=NC(=S)NC(c3cccs3)C2C1` (configuration not stated): the TGI in the assay with A498 renal, in the assay on SW-620 colon, with HCC-2998 colon, in the assay with A549 NSCLC, in the assay with PC-3 prostate and in the assay with RPMI-8226 leukemia was more than 100 µM each time. Further, the TGI in the assay on ACHN renal was more than 100 µM; in the assay with MALME-3M melanoma, more than 100 µM; in the assay on UO-31 renal, more than 100 µM; in the assay with SR leukemia, 54.2 µM.
Take `O=C1N[C@H]2c3c(Cl)sc(Cl)c3/C(=N/O)[C@H]2O1`: the TGI with A498 renal, in the assay on SW-620 colon, in the assay with HCC-2998 colon, with A549 NSCLC, in the assay on PC-3 prostate and with RPMI-8226 leukemia was more than 100 µM in each case. The TGI in the assay on ACHN renal, in the assay on MALME-3M melanoma, in the assay with UO-31 renal and with SR leukemia was more than 100 µM in each case.

In general, TGI refers to the concentration at which net growth stops. Lower therefore signals greater sensitivity of the cells. As usually defined, the GI50 is the concentration at which growth is held to half of that of the control.
